Laboratory results as given in patent US6372717B1, “Synthetic peptides and their use in cosmetic or dermopharmaceutical compositions” (Sederma S.A., priority 1999, dated 2002).

Test system: human skin
Assay: activity by topical application
Assay type: in vivo
Excerpt: The object of the present invention is the discovery that this peptide, and above all the lipophile derivatives of the peptide, have a calming, antalgic activity when applied to the human skin in a suitable cosmetic or dermopharmaceutical preparation.

N=C(N)NCCC[C@H](NC(=O)[C@@H](N)Cc1ccc(O)cc1)C(=O)O [H-L-Tyr-L-Arg-OH]
activity by topical application: only a slight activity
